The target of experiment [1] is T1, Serine/threonine-protein kinase A-Raf (Homo sapiens, UniProt P10398).
T1 sequence (P10398 whole entry): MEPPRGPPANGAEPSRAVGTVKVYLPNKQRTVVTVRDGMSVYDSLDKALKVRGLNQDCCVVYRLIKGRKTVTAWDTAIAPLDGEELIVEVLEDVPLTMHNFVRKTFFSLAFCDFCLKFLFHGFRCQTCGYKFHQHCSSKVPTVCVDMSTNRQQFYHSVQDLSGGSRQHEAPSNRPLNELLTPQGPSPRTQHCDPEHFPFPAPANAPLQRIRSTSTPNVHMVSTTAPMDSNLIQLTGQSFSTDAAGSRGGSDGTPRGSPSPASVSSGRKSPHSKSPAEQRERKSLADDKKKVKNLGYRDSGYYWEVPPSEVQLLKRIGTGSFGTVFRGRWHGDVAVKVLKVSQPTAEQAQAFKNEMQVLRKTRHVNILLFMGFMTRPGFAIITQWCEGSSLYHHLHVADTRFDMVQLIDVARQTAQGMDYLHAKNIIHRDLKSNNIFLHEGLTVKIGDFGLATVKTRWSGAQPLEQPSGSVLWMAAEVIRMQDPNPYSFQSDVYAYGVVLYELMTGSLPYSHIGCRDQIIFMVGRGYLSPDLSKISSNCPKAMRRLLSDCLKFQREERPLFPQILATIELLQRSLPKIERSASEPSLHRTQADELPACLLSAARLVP

Experiment [2] deals with Eukaryotic translation initiation factor 2-alpha kinase 1 (Homo sapiens, UniProt Q9BQI3).
Eukaryotic translation initiation factor 2-alpha kinase 1, sequence (Q9BQI3 whole entry): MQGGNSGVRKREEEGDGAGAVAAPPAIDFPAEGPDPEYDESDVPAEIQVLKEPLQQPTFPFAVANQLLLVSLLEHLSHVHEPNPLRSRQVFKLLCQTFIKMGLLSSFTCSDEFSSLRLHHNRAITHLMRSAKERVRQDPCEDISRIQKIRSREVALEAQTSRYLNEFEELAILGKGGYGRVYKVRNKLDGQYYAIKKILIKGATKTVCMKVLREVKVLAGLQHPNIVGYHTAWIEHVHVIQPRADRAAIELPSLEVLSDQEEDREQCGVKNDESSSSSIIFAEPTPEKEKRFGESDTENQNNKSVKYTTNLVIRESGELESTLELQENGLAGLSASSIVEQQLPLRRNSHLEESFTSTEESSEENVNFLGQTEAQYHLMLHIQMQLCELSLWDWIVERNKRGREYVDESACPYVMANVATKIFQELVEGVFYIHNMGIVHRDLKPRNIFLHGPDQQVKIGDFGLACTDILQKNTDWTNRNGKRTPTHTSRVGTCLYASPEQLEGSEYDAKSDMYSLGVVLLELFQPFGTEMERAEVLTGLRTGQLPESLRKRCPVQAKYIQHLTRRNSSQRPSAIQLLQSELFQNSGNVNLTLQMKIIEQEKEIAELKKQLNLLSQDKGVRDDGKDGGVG
Experiment [3] deals with Phosphatidylethanolamine-binding protein 1 (Homo sapiens, UniProt P30086).
Phosphatidylethanolamine-binding protein 1, sequence (P30086 whole entry): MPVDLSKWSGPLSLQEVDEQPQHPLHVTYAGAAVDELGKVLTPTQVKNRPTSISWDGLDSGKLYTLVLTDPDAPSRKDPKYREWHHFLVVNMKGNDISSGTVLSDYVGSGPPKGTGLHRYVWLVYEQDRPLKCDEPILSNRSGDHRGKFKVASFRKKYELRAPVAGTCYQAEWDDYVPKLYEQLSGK
Experiment [4] addresses Protein kinase C delta type (Homo sapiens, UniProt Q05655).
Experiment [5] has as its target T2, Glycogen phosphorylase, brain form (Homo sapiens, UniProt P11216).
T2 sequence (P11216 whole entry): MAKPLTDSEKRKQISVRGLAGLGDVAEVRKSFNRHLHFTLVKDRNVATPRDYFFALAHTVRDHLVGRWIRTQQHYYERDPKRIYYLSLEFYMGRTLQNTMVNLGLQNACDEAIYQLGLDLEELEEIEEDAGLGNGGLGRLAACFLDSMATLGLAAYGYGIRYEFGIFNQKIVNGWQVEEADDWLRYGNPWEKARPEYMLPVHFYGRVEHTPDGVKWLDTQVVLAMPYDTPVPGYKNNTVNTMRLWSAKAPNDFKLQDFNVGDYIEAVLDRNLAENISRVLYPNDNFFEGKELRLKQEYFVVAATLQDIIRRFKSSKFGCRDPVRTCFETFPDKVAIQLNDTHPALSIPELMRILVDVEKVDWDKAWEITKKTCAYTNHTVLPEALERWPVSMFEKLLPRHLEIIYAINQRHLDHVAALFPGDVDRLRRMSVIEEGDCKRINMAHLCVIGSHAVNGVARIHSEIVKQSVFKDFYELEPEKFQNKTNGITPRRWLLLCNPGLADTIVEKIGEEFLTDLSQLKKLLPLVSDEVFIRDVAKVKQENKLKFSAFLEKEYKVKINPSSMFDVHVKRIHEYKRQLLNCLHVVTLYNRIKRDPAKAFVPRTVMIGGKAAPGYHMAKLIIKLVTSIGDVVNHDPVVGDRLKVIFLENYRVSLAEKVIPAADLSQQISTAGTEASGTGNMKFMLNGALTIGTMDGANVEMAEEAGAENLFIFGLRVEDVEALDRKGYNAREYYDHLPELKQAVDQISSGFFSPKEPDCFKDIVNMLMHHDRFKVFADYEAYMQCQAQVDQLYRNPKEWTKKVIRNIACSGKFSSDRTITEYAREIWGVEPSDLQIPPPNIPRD

For experiment [6], the target named is TRAF2 and NCK-interacting protein kinase (Homo sapiens, UniProt Q9UKE5).
TRAF2 and NCK-interacting protein kinase, sequence (Q9UKE5 whole entry): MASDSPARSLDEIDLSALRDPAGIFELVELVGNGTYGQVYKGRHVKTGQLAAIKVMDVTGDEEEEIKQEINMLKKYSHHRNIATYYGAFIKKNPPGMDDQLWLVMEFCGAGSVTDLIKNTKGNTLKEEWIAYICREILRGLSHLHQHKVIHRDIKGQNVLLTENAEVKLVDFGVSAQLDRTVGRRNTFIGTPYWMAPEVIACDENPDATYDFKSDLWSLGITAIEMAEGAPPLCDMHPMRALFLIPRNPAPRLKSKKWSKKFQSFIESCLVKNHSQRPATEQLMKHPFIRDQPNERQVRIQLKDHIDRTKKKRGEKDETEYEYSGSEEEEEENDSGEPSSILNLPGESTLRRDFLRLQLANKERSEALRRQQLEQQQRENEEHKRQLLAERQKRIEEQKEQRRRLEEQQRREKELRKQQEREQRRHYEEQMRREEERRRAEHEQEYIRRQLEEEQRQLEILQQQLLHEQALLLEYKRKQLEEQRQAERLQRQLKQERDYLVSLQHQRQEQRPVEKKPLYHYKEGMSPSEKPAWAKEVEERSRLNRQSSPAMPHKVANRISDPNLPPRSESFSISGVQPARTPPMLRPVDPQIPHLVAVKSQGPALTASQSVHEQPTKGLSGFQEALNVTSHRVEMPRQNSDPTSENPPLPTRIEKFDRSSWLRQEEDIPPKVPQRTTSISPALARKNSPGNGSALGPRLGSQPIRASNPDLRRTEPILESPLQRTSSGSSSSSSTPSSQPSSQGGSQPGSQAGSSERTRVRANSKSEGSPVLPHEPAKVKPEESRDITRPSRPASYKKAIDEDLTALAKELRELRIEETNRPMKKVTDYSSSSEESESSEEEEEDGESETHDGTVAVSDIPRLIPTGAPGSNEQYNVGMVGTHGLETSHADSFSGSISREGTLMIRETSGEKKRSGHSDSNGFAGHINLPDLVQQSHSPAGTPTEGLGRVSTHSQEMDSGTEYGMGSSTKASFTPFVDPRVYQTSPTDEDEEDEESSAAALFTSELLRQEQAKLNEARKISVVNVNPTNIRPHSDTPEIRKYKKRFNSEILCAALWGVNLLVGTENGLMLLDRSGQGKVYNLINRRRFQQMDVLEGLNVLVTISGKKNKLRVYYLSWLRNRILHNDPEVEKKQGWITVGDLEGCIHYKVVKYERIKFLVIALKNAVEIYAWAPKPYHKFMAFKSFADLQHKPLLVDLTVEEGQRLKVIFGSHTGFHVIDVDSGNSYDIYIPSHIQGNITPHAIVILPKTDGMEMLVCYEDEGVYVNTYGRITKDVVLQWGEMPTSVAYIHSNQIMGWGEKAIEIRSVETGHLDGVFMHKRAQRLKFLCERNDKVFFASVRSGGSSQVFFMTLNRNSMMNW
For the next experiment, the target named is T3, Septin-9 (Homo sapiens, UniProt Q9UHD8).
T3 sequence (Q9UHD8 whole entry): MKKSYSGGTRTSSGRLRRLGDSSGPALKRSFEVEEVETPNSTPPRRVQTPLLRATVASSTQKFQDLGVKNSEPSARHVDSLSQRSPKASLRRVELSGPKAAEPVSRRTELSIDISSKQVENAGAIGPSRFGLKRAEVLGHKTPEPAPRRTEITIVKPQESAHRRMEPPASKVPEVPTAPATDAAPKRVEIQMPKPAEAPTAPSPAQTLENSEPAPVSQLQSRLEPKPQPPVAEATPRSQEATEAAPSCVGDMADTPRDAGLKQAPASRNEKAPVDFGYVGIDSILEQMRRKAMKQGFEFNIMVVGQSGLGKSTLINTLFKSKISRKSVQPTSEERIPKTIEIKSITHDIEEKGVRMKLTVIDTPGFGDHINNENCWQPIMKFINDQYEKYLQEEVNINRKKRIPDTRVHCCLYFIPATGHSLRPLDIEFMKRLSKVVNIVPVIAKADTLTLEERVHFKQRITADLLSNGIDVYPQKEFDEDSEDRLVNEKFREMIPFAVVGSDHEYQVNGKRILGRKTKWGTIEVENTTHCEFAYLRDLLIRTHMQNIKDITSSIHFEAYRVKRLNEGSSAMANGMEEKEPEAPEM

pKd: −log10 of the molar value. Active and inactive are the calls of the source. Some results are limits rather than exact numbers.
Further: in the data inactive means no Kd found up to 30 µM.

Protein kinase C delta type, sequence (Q05655 whole entry): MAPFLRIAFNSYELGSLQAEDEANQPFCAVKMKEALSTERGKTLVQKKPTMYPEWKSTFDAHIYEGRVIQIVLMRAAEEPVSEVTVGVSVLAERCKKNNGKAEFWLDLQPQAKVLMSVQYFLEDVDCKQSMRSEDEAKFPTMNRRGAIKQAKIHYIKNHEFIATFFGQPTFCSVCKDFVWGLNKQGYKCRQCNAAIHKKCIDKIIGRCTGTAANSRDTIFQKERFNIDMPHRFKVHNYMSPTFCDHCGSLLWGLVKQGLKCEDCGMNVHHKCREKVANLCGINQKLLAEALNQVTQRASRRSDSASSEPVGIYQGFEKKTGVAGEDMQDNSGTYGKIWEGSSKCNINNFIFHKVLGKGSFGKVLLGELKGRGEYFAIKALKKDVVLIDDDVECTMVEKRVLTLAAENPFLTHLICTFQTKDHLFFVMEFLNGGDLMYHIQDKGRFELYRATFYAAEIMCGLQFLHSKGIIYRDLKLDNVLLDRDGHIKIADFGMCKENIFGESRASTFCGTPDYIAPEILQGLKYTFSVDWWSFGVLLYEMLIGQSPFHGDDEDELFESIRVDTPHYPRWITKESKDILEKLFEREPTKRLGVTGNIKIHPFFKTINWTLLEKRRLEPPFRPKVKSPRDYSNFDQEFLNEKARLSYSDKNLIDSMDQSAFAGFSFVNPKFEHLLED

What is called Kd is the equilibrium constant for the complex coming apart. On to `C[C@@H](Oc1cc(C(=O)Nc2ccc(C(=O)N3CCN(C)CC3)cc2)nnc1N)c1c(Cl)ccc(F)c1Cl`, for which the Kd in experiment [1], in experiment [2], in experiment [3], in experiment [4], in experiment [5] and in experiment [6] was > 30 µM (inactive) in each case.
Consider `C=CC(=O)N1CCC[C@H](n2c(=O)n(-c3ccc(Oc4ccccc4)cc3)c3c(N)ncnc32)C1`, for which the Kd (in experiment [2]; in experiment [3]; in experiment [4]; in experiment [5]; at Septin-9; in experiment [6]) was > 30 µM (inactive) in each case.
In the case of `Cc1nc2cc(-c3nn(C(C)C)c4ncnc(N)c34)ccc2o1`, the Kd (in experiment [1]; in experiment [2]; in experiment [3]; in experiment [4]; in experiment [5]; on Septin-9) was > 30 µM (inactive) in each case. The Kd in experiment [6] is > 30 µM (inactive).
Turning to `COCc1c(-c2ccc(NC(=O)Nc3cc(C(F)(F)F)ccc3F)c(F)c2)c2c(N)ncnn2c1CN1CCOCC1`, the Kd in experiment [1] was > 30 µM (inactive); in experiment [2] it was > 30 µM (inactive); in experiment [3] it was > 30 µM (inactive); in experiment [4] it was 5.08 µM (active); in experiment [5], > 30 µM (inactive); on Septin-9, > 30 µM (inactive). Also, the Kd in experiment [6] is > 30 µM (inactive).
On to `COc1cc(Nc2ncc3c(n2)-c2ccc(Cl)cc2C(c2c(F)cccc2OC)=NC3)ccc1C(=O)O` [ALISERTIB], for which the Kd (in experiment [1]; in experiment [2]; in experiment [3]; in experiment [5]; at Septin-9; in experiment [6]) was > 30 µM (inactive) each time.
In the case of `Cc1nc(NC(=O)N2CCC[C@H]2C(N)=O)sc1-c1ccnc(C(C)(C)C(F)(F)F)c1` [ALPELISIB], the Kd (in experiment [1]; in experiment [2]; in experiment [3]; in experiment [4]; in experiment [5]; at Septin-9) was > 30 µM (inactive) in each case. Also, in experiment [6], the Kd was > 30 µM (inactive).
Turning to `Cc1csc(-c2nnc(Nc3ccc(Oc4ncccc4-c4ccnc(N)n4)cc3)c3ccccc23)c1` [AMG-900], the Kd in experiment [1] is > 30 µM (inactive); in experiment [2], > 30 µM (inactive); in experiment [3] it was > 30 µM (inactive); in experiment [4], 1.09 µM (active); in experiment [5], > 30 µM (inactive); at Septin-9, > 30 µM (inactive). Also, the Kd in experiment [6] is > 30 µM (inactive).
For `O=C(Nc1c[nH]nc1-c1nc2cc(CN3CCOCC3)ccc2[nH]1)NC1CC1` [AT-9283], the Kd (in experiment [1]; in experiment [2]; in experiment [3]; in experiment [4]; in experiment [5]; on Septin-9) was > 30 µM (inactive) each time. Besides, the Kd in experiment [6] is 0.801 µM (active).
As for `COc1cc([C@@H]2c3cc4c(cc3[C@H](O)[C@H]3COC(=O)[C@@H]23)OCO4)cc(OC)c1OC` [AXL-1717], the Kd (in experiment [1]; in experiment [2]; in experiment [3]; in experiment [4]; in experiment [5]; at Septin-9) was > 30 µM (inactive) each time. Further, in experiment [6], the Kd was > 30 µM (inactive).
By pKd is commonly meant the Kd on a negative log10 scale, so that one unit is a factor of ten. A lower pKd goes with a high Kd. Take `NC(=O)Nc1cc(-c2cccc(F)c2)sc1C(=O)N[C@H]1CCCNC1` [AZD-7762]: the Kd is > 30 µM (inactive) in experiment [1]; > 30 µM (inactive) in experiment [2]; > 30 µM (inactive) in experiment [3]; > 30 µM (inactive) in experiment [5]; > 30 µM (inactive) at Septin-9; 0.094 µM (active) in experiment [6]. The pKd in experiment [4] was 6.03.
As for `Cn1cnc2c(F)c(Nc3ccc(Br)cc3F)c(C(=O)NOCCO)cc21` [BINIMETINIB], the Kd (in experiment [1]; in experiment [2]; in experiment [3]; in experiment [4]; in experiment [5]; on Septin-9) was > 30 µM (inactive) throughout. In experiment [6], the Kd was > 30 µM (inactive).
With `CC(C)(C)c1nc(-c2cccc(NS(=O)(=O)c3c(F)cccc3F)c2F)c(-c2ccnc(N)n2)s1` [DABRAFENIB], the Kd was 0.047 µM (active) in experiment [1]; > 30 µM (inactive) in experiment [3]; > 30 µM (inactive) in experiment [4]; > 30 µM (inactive) in experiment [5]; > 30 µM (inactive) on Septin-9; > 30 µM (inactive) in experiment [6].
As for `Cc1nc2cc(-n3ncc(C(=O)c4cc5ccccc5[nH]4)c3N)ccc2[nH]1` [FGFR INHIBITOR DEBIO 1347], the Kd (in experiment [2]; in experiment [3]; in experiment [4]; at Septin-9; in experiment [6]) was > 30 µM (inactive) throughout.
Regarding `O=C(Nc1cc(C(F)(F)F)cc(C(F)(F)F)c1)c1cc(Cl)ccc1O` [IMD-0354], the Kd (in experiment [1]; in experiment [2]; in experiment [3]; in experiment [5]; at Septin-9; in experiment [6]) was > 30 µM (inactive) throughout.
Regarding `NC(=O)c1c(OCc2c(F)cc(Br)cc2F)nsc1NC(=O)NCCCCN1CCCC1` [OSI-632], the Kd in experiment [1] is > 30 µM (inactive); in experiment [2] it was 3.57 µM (active); in experiment [3] it was > 30 µM (inactive); in experiment [5] it was > 30 µM (inactive); at Septin-9 it was > 30 µM (inactive); in experiment [6], > 30 µM (inactive).
Consider `CO[C@H]1C[C@@H]2CC[C@@H](C)[C@@](O)(O2)C(=O)C(=O)N2CCCC[C@H]2C(=O)O[C@H]([C@H](C)C[C@@H]2CC[C@@H](OC(=O)C(C)(CO)CO)[C@H](OC)C2)CC(=O)[C@H](C)/C=C(\C)[C@@H](O)[C@@H](OC)C(=O)[C@H](C)C[C@H](C)/C=C/C=C/C=C/1C` [TEMSIROLIMUS], for which the Kd (in experiment [1]; in experiment [2]; in experiment [3]; in experiment [4]; at Septin-9; in experiment [6]) was > 30 µM (inactive) throughout.
Turning to `CC(C)c1cc(CNc2nc(Nc3cc(C4CC4)[nH]n3)cc(N3CCN(C)CC3)n2)on1` [XL-228], the Kd (in experiment [1]; in experiment [3]; in experiment [4]; in experiment [5]; on Septin-9) was > 30 µM (inactive) throughout. This compound showed a pKd in experiment [6] of 6.74.

These data come from ChEMBL document CHEMBL3991601, “The target landscape of clinical kinase drugs” (Science, 2017).
